In ChEMBL document CHEMBL3774377 (Bioorg Med Chem, 2016):

Tests used:
[1] = biological target: Sodium- and chloride-dependent GABA transporter 1 (Mus musculus) (UniProt P31648); assay: Inhibition of mouse GAT1 expressed in HEK293 cells assessed as remaining [3H]GABA uptake at 1 mM preincubated for 25 mins followed by [3H]GABA/unlabeled GABA addition measured after 4 mins by liquid scintillation counting analysis; format: cell-based
[2] = biological target: T1, GABA transporter 4 (Mus musculus) (UniProt P31650); assay: Inhibition of mouse GAT4 expressed in HEK293 cells assessed as remaining [3H]GABA uptake at 1 mM preincubated for 25 mins followed by [3H]GABA/unlabeled GABA addition measured after 4 mins by liquid scintillation counting analysis; format: cell-based
T1 sequence (whole entry): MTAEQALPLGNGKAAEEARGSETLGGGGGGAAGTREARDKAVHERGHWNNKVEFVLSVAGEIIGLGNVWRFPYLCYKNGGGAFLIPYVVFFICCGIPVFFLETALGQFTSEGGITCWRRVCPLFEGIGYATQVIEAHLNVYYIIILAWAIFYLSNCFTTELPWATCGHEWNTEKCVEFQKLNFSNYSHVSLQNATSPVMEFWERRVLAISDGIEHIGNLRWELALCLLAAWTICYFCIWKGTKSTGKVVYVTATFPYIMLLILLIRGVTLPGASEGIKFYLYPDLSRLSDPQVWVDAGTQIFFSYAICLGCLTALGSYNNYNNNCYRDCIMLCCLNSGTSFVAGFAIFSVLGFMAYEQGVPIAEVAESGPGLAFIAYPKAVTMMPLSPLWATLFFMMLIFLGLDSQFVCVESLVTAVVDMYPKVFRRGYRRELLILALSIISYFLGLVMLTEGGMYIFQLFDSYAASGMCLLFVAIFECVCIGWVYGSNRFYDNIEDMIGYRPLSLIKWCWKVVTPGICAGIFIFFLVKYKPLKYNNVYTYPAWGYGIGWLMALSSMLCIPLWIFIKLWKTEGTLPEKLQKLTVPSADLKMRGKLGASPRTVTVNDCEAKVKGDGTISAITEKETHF

[3] = biological target: Sodium- and chloride-dependent GABA transporter 1 (Mus musculus) (UniProt P31648); assay: Displacement of NO 711 from mouse GAT1 expressed in HEK293 cell membranes assessed as remaining marker bound to protein at 1 mM after 40 mins by LC-ESI-MS-MS-based MS binding assay
[4] = biological target: Sodium- and chloride-dependent GABA transporter 1 (Mus musculus) (UniProt P31648); assay: Displacement of NO 711 from mouse GAT1 expressed in HEK293 cell membranes assessed as remaining marker bound to protein at 100 uM after 40 mins by LC-ESI-MS-MS-based MS binding assay
[5] = biological target: Sodium- and chloride-dependent GABA transporter 1 (Mus musculus) (UniProt P31648); assay: Inhibition of mouse GAT1 expressed in HEK293 cells assessed as remaining [3H]GABA uptake at 100 uM preincubated for 25 mins followed by [3H]GABA/unlabeled GABA addition measured after 4 mins by liquid scintillation counting analysis; format: cell-based
[6] = biological target: T1, GABA transporter 4 (Mus musculus); assay: Inhibition of mouse GAT4 expressed in HEK293 cells assessed as remaining [3H]GABA uptake at 100 uM preincubated for 25 mins followed by [3H]GABA/unlabeled GABA addition measured after 4 mins by liquid scintillation counting analysis; format: cell-based
[7] = test system: Sodium- and chloride-dependent GABA transporter 2 (Mus musculus); assay: Inhibition of mouse GAT3 expressed in HEK293 cells assessed as remaining [3H]GABA uptake at 100 uM preincubated for 25 mins followed by [3H]GABA/unlabeled GABA addition measured after 4 mins by liquid scintillation counting analysis
[8] = test system: Sodium- and chloride-dependent betaine transporter (Mus musculus); assay: Inhibition of mouse GAT2 expressed in HEK293 cells assessed as remaining [3H]GABA uptake at 100 uM preincubated for 25 mins followed by [3H]GABA/unlabeled GABA addition measured after 10 mins by liquid scintillation counting analysis
[9] = biological target: T2, Sodium- and chloride-dependent GABA transporter 1 (Mus musculus, UniProt P31648); assay: Inhibition of mouse GAT1 expressed in HEK293 cells assessed as [3H]GABA uptake preincubated for 25 mins followed by [3H]GABA/unlabeled GABA addition measured after 4 mins by liquid scintillation counting analysis; format: cell-based
[10] = biological target: T2, Sodium- and chloride-dependent GABA transporter 1; assay: Displacement of NO 711 from mouse GAT1 expressed in HEK293 cell membranes after 40 mins by LC-ESI-MS-MS-based MS binding assay
GABA transporter 4 = biological target: T3, GABA transporter 4 (Mus musculus, UniProt P31650); assay: Inhibition of mouse GAT4 expressed in HEK293 cells assessed as [3H]GABA uptake preincubated for 25 mins followed by [3H]GABA/unlabeled GABA addition measured after 4 mins by liquid scintillation counting analysis; format: cell-based
T3 sequence (P31650 whole entry): T1 sequence (whole entry)

[11] = test system: Sodium- and chloride-dependent GABA transporter 2 (Mus musculus); assay: Inhibition of mouse GAT3 expressed in HEK293 cells assessed as remaining [3H]GABA uptake at 1 mM preincubated for 25 mins followed by [3H]GABA/unlabeled GABA addition measured after 4 mins by liquid scintillation counting analysis

Row | Activity [4] | Activity [5] | Activity [6] | Activity [7] | Activity [8] | IC50 [9] | Ki [10] | SMILES | other results
1 |  |  |  |  |  |  |  | CCCC[C@H]1CCNC[C@@H]1C(=O)O (racemic) | Activity [1]: 69.9%; Activity [2]: 87.5%; Activity [3]: 91.7%
2 | 76.2% | 68.6% | 63.5% | 55.3% | 81.2% |  |  | O=C(O)[C@H]1CNCC[C@H]1CC/C=C/c1ccccc1-c1ccccc1 (racemic) | 
3 | 83.9% | 60.4% | 86.9% | 58.2% | 52% |  |  | O=C(O)[C@H]1CNCC[C@H]1CCC#Cc1ccccc1-c1ccccc1 (racemic) | 
4 | 45.9% |  | 52.5% | 54.5% | 64.8% | 66.8 µM |  | O=C(O)[C@H]1CNCC[C@H]1CCC/C=C/c1ccccc1-c1ccccc1 (racemic) | 
5 | 82.7% | 70.1% | 63.9% | 53.9% | 68.4% |  |  | O=C(O)[C@H]1CNCC[C@H]1CCC#Cc1ccccc1Cc1ccccc1 (racemic) | 
6 | 79.6% | 43.9% | 49.7% |  | 62.5% |  |  | O=C(O)[C@H]1CNCC[C@H]1CC/C=C/c1ccccc1Cc1ccccc1 (racemic) | 
7 | 78.5% | 60.5% |  |  |  |  |  | O=C(O)[C@H]1CNCC[C@@H]1CCCC/C=C/c1ccccc1Cc1ccccc1 (racemic) | 
8 |  |  |  |  |  | 36.7 µM | 39.8 µM | CN1CC[C@H](CC/C=C/c2ccccc2Cc2ccccc2)[C@@H](C(=O)O)C1 (racemic) | 
9 |  |  |  |  |  |  | 35.4 µM | O=C(O)[C@H]1CNCC[C@H]1CCCC/C=C/c1ccccc1Cc1ccccc1 (racemic) | 
10 |  |  |  |  |  | 1150 µM |  | C#CCCC[C@H]1CCNC[C@@H]1C(=O)O (racemic) | Activity [2]: 84.9%; Activity [3]: 87.2%
11 |  |  |  |  |  | 24.5 µM | 27.4 µM | O=C(O)[C@H]1CNCC[C@H]1CCCC/C=C/c1ccccc1-c1ccccc1 (racemic) | IC50 (GABA transporter 4): 36.7 µM
12 | 64.4% |  | 69.4% | 56.4% | 51.9% | 37.4 µM |  | CN1CC[C@H](CCCC#Cc2ccccc2-c2ccccc2)[C@@H](C(=O)O)C1 (racemic) | 
13 |  |  |  |  | 81.2% |  |  | C=CCC[C@H]1CCNC[C@@H]1C(=O)O (racemic) | Activity [1]: 63.6%; Activity [2]: 86.1%; Activity [3]: 79.9%; Activity [11]: 73.1%
14 | 83.1% | 80% | 77.8% | 72.9% | 67.7% |  |  | O=C(O)[C@H]1CNCC[C@H]1CCCC#Cc1ccccc1-c1ccccc1 (racemic) | 
15 | 86.6% | 73.9% | 76.1% | 75.7% | 98.3% |  |  | O=C(O)[C@H]1CNCC[C@@H]1CCC/C=C/c1ccccc1-c1ccccc1 (racemic) | 
16 | 86.5% | 79.8% | 81.1% | 81.9% | 68.4% |  |  | CN1CC[C@H](CCC#Cc2ccccc2-c2ccccc2)[C@@H](C(=O)O)C1 (racemic) | 
17 |  |  |  |  |  | 64.1 µM | 68.1 µM | O=C(O)[C@H]1CNCC[C@H]1CCC/C=C/c1ccccc1Cc1ccccc1 (racemic) | 
18 |  |  |  |  |  | 740 µM | 818 µM | C=CCCCC[C@H]1CCNC[C@@H]1C(=O)O (racemic) | Activity [2]: 89.9%
19 | 79% | 86.3% | 92.4% | 78.1% | 85.1% |  |  | O=C(O)[C@H]1CNCC[C@@H]1CC/C=C/c1ccccc1Cc1ccccc1 (racemic) | 
20 |  |  |  |  |  |  | 0.186 µM | O=C(O)C1CCCN(CCC=C(c2ccccc2)c2ccccc2)C1 (configuration not stated) | 
21 |  |  | 50% |  |  | 25.9 µM | 28.6 µM | CN1CC[C@H](CCCC#Cc2ccccc2Cc2ccccc2)[C@@H](C(=O)O)C1 (racemic) | 
22 |  |  |  |  |  | 107 µM | 77.1 µM | O=C(O)[C@H]1CNCC[C@@H]1CCC/C=C/c1ccccc1Cc1ccccc1 (racemic) | 
23 |  |  |  |  | 63.7% | 75.5 µM | 71.8 µM | O=C(O)[C@H]1CNCC[C@@H]1CCCC/C=C/c1ccccc1-c1ccccc1 (racemic) | IC50 (GABA transporter 4): 83.6 µM
24 |  |  | 84.7% | 53.5% | 88.7% | 60.5 µM | 33.2 µM | O=C(O)[C@H]1CNCC[C@@H]1CC/C=C/c1ccccc1-c1ccccc1 (racemic) | 
25 |  |  |  |  | 51.1% | 40.8 µM | 31 µM | O=C(O)[C@H]1CNCC[C@H]1CCCC#Cc1ccccc1Cc1ccccc1 (racemic) | IC50 (GABA transporter 4): 62.5 µM
26 |  |  | 57.9% | 53.8% | 90.8% | 34.8 µM | 72.4 µM | CN1CC[C@H](CCC/C=C/c2ccccc2-c2ccccc2)[C@@H](C(=O)O)C1 (racemic) | 
27 |  |  | 75.5% | 67.9% | 108% | 26.5 µM | 14.3 µM | CN1CC[C@H](CC/C=C/c2ccccc2-c2ccccc2)[C@@H](C(=O)O)C1 (racemic) | 
28 |  |  | 45.7% |  |  | 24.7 µM | 39.9 µM | CN1CC[C@H](CCC/C=C/c2ccccc2Cc2ccccc2)[C@@H](C(=O)O)C1 (racemic) | 
29 |  |  |  |  |  |  |  | C#CCC[C@H]1CCNC[C@@H]1C(=O)O (racemic) | Activity [2]: 90.4%; Activity [3]: 88.9%
30 | 73.9% | 60.9% | 84.4% | 71% | 57.5% |  |  | CN1CC[C@H](CCC#Cc2ccccc2Cc2ccccc2)[C@@H](C(=O)O)C1 (racemic) | 
